Experimental data reported in patent US11807625B2, “Capsid inhibitors for the prevention of HIV” (Gilead Sciences, Inc., priority 2019, dated 2023).
Where two headings read alike, the source gives them in different places.

Experiment: PK of compound of Formula (Ia) after single subcutaneous dose of solution formulations in beagle dogs
Type: in vivo
Conditions: male, beagle, dog, plasma, sc, 12 mg/kg; for AUC(0-t): male beagle dogs, single SC 12 mg/kg, mean ± SD, n = 3
Experimental: Formulations containing the compound of Formula (Ia), or a pharmaceutically acceptable salt thereof, were prepared as solutions and optionally administered subcutaneously or intramuscularly to rats, rabbits, and/or dogs.
(§1) A solution of about 400 mg/mL of the compound of Formula (Ia) having 17.00 w/w % water, 36.40 w/w % PEG 300, 35.20 w/w % of a sodium salt of a compound of Formula (Ia), 5.00 w/w % ethanol, and 6.40 w/w % poloxamer 188 was prepared. The solution was administered subcutaneously to male beagle dogs at a dose level of about 12 mg/kg and male Wistar Han rats at a dose level of about 50 mg/kg. The pharmacokinetic profiles were determined, and the results for dogs are summarized in Table and Table, while the results for rats are summarized in Table and Table below.
as §1, with “500” for “400”, “14.06” for “17.00”, “30.12” for “36.40”
A solution of about 300 mg/mL of the compound of Formula (Ia) having 23.33 w/w % water, 48.99 w/w % PEG 300, 26.47 w/w % of a sodium salt of a compound of Formula (Ia), and 1.21 w/w % poloxamer 188 was prepared. The solution was administered subcutaneously to male beagle dogs at a dose level of about 6 mg/kg and male Wistar Han rats at a dose level of about 50 mg/kg. The pharmacokinetic profiles were determined, and the results for dogs are summarized in Table and Table, while the results for rats are summarized in Table and Table below.
as §1, with “18.80” for “17.00”, “40.25” for “36.40”, “34.38” for “35.20”, “1.57” for “6.40”
as §1, with “500” for “400”, “16.29” for “17.00”, “34.88” for “36.40”, “41.92” for “35.20”, “1.91” for “6.40”
as §1, with “20.90” for “17.00”, “44.72” for “36.40”, “and 34.38” for “35.20”, “(Ia)” for “(Ia), 5.00 w/w % ethanol, and 6.40 w/w % poloxamer 188”
A solution of about 400 mg/mL of the compound of Formula (Ia) having 19.90 w/w % water, 42.59 w/w % PEG 300, 34.38 w/w % of a sodium salt of a compound of Formula (Ia), and 3.13 w/w % poloxamer 188 was prepared. The solution was administered subcutaneously to male beagle dogs at a dose level of about 12 mg/kg and male Wistar Han rats at a dose level of about 50 mg/kg. […]

[1] = beagle dogs, SC 12 mg/kg, 500 mg/mL solution X (5.00% ethanol, 1.91% poloxamer 188), Mean n = 3
[2] = beagle dogs, SC 12 mg/kg, 500 mg/mL solution X (5.00% ethanol, 1.91% poloxamer 188), animals #1-#3

## CC(C)(C#Cc1ccc(-c2ccc(Cl)c3c(NS(C)(=O)=O)nn(CC(F)(F)F)c23)c([C@H](Cc2cc(F)cc(F)c2)NC(=O)Cn2nc(C(F)(F)F)c3c2C(F)(F)[C@@H]2C[C@H]32)n1)S(C)(=O)=O [compound of Formula (Ia)]
[1]
  concentration at 24 h: 39.7 nM
  concentration at 48 h: 44.7 nM
[2]
  concentration at 24 h: 32.8 nM
  concentration at 48 h: 39.8 nM
Beagle dogs, SC 12 mg/kg, 500 mg/mL solution X (5.00% ethanol, 1.91% poloxamer 188), 72.0 h, Mean n = 3
  concentration at 72 h: 36.5 nM
Beagle dogs, SC 12 mg/kg, 500 mg/mL solution X (5.00% ethanol, 1.91% poloxamer 188), 96.0 h, Mean n = 3
  concentration at 96 h: 31.4 nM
Beagle dogs, SC 12 mg/kg, 500 mg/mL solution X (5.00% ethanol, 1.91% poloxamer 188), 168 h, Mean n = 3
  concentration at 168 h: 39.2 nM
Beagle dogs, SC 12 mg/kg, 500 mg/mL solution X (5.00% ethanol, 1.91% poloxamer 188), 336 h, Mean n = 3
  concentration at 336 h: 50.3 nM
Beagle dogs, SC 12 mg/kg, 500 mg/mL solution X (5.00% ethanol, 1.91% poloxamer 188), 504 h, Mean n = 3
  concentration at 504 h: 114 nM
Beagle dogs, SC 12 mg/kg, 500 mg/mL solution X (5.00% ethanol, 1.91% poloxamer 188), 672 h, Mean n = 3
  concentration at 672 h: 110 nM
Beagle dogs, SC 12 mg/kg, 500 mg/mL solution X (5.00% ethanol, 1.91% poloxamer 188), 840 h, Mean n = 3
  concentration at 840 h: 61.4 nM
Beagle dogs, SC 12 mg/kg, 500 mg/mL solution X (5.00% ethanol, 1.91% poloxamer 188), 1008 h, Mean n = 3
  concentration at 1008 h: 68.3 nM
Beagle dogs, SC 12 mg/kg, 500 mg/mL solution X (5.00% ethanol, 1.91% poloxamer 188), 1344 h, Mean n = 3
  concentration at 1344 h: 48.5 nM
Beagle dogs, SC 12 mg/kg, 500 mg/mL solution X (5.00% ethanol, 1.91% poloxamer 188), 1680 h, Mean n = 3
  concentration at 1680 h: 37.7 nM
Beagle dogs, SC 12 mg/kg, 500 mg/mL solution X (5.00% ethanol, 1.91% poloxamer 188), 2016 h, Mean n = 3
  concentration at 2016 h: 23.4 nM
Beagle dogs, SC 12 mg/kg, 500 mg/mL solution X (5.00% ethanol, 1.91% poloxamer 188), 2352 h, Mean n = 3
  concentration at 2352 h: 24.3 nM
Beagle dogs, SC 12 mg/kg, 500 mg/mL solution X (5.00% ethanol, 1.91% poloxamer 188), 2688 h, Mean n = 3
  concentration at 2688 h: 14.6 nM
Beagle dogs, SC 12 mg/kg, 500 mg/mL solution X (5.00% ethanol, 1.91% poloxamer 188), 3024 h, Mean n = 3
  concentration at 3024 h: 14.6 nM
Beagle dogs, SC 12 mg/kg, 500 mg/mL solution X (5.00% ethanol, 1.91% poloxamer 188), 3360 h, Mean n = 3
  concentration at 3360 h: 9.6 nM
Beagle dogs, SC 12 mg/kg, 500 mg/mL solution X (5.00% ethanol, 1.91% poloxamer 188), 3696 h, Mean n = 3
  concentration at 3696 h: 8.6 nM
Beagle dogs, SC 12 mg/kg, 500 mg/mL solution X (5.00% ethanol, 1.91% poloxamer 188), 4032 h, Mean n = 3
  concentration at 4032 h: 8.3 nM
Beagle dogs, SC 12 mg/kg, 500 mg/mL solution X (5.00% ethanol, 1.91% poloxamer 188), 4368 h, Mean n = 3
  concentration at 4368 h: 6.4 nM
400 mg/mL solution AA (6.25% poloxamer 188), read-out: AUC0-24 h
  AUC(0-t): 1.57 ± 0.56 µM·h
400 mg/mL solution AA (6.25% poloxamer 188), read-out: AUC0-168 h
  AUC(0-t): 22.2 ± 7 µM·h
400 mg/mL solution AA (6.25% poloxamer 188), read-out: AUC0-336 h
  AUC(0-t): 46.3 ± 9.4 µM·h
400 mg/mL solution AA (6.25% poloxamer 188), read-out: AUC0-672 h
  AUC(0-t): 108 ± 26 µM·h
400 mg/mL solution AA (6.25% poloxamer 188), read-out: AUC0-1008 h
  AUC(0-t): 149 ± 31 µM·h
400 mg/mL solution AA (6.25% poloxamer 188), read-out: AUC0-1344 h
  AUC(0-t): 171 ± 33 µM·h
400 mg/mL solution AA (6.25% poloxamer 188), read-out: AUC0-2352 h
  AUC(0-t): 195 ± 35 µM·h
400 mg/mL solution AA (6.25% poloxamer 188), read-out: AUC0-3024 h
  AUC(0-t): 200 ± 35 µM·h
400 mg/mL solution AA (6.25% poloxamer 188), read-out: AUC0-3696 h
  AUC(0-t): 208 ± 47 µM·h
400 mg/mL solution Y (water, PEG 300), read-out: AUC0-24 h
  AUC(0-t): 0.996 ± 0.513 µM·h
400 mg/mL solution Y (water, PEG 300), read-out: AUC0-168 h
  AUC(0-t): 9.61 ± 2.6 µM·h
400 mg/mL solution Y (water, PEG 300), read-out: AUC0-336 h
  AUC(0-t): 27.4 ± 1.9 µM·h
400 mg/mL solution Y (water, PEG 300), read-out: AUC0-672 h
  AUC(0-t): 100 ± 7.2 µM·h
400 mg/mL solution Y (water, PEG 300), read-out: AUC0-1008 h
  AUC(0-t): 146 ± 11 µM·h
400 mg/mL solution Y (water, PEG 300), read-out: AUC0-1344 h
  AUC(0-t): 172 ± 16 µM·h
400 mg/mL solution Y (water, PEG 300), read-out: AUC0-2352 h
  AUC(0-t): 200 ± 19 µM·h
400 mg/mL solution Y (water, PEG 300), read-out: AUC0-3024 h
  AUC(0-t): 207 ± 19 µM·h
400 mg/mL solution Y (water, PEG 300), read-out: AUC0-3696 h
  AUC(0-t): 210 ± 18 µM·h
400 mg/mL solution Z (3.13% poloxamer 188), read-out: AUC0-24 h
  AUC(0-t): 1.02 ± 0.58 µM·h
400 mg/mL solution Z (3.13% poloxamer 188), read-out: AUC0-168 h
  AUC(0-t): 10.6 ± 4.9 µM·h
400 mg/mL solution Z (3.13% poloxamer 188), read-out: AUC0-336 h
  AUC(0-t): 30.1 ± 14.8 µM·h
400 mg/mL solution Z (3.13% poloxamer 188), read-out: AUC0-672 h
  AUC(0-t): 92.7 ± 31 µM·h
400 mg/mL solution Z (3.13% poloxamer 188), read-out: AUC0-1008 h
  AUC(0-t): 125 ± 31 µM·h
400 mg/mL solution Z (3.13% poloxamer 188), read-out: AUC0-1344 h
  AUC(0-t): 147 ± 32 µM·h
400 mg/mL solution Z (3.13% poloxamer 188), read-out: AUC0-2352 h
  AUC(0-t): 170 ± 33 µM·h
